Measurements taken from patent publication US8883778B2, “Cyclic inhibitors of 11 beta-hydroxysteroid dehydrogenase 1” (Vitae Pharmaceuticals, Inc., priority 2009, dated 2014).

Experiments:
11β-HSD1 [1] = target: T1, 11β-HSD1 (Homo sapiens, UniProt P28845); assay: In vitro inhibition of 11β-HSD1 with HTRF technology, cortisol generated by human liver microsomes; assay type: biochemical; parameters: detecting cortisol generated from cortisterone by human liver microsomes; from tissue; host or cells: human liver microsomes; conditions: 1 hour at 37° C., cortisone 80 nM
T1 sequence (P28845 whole entry): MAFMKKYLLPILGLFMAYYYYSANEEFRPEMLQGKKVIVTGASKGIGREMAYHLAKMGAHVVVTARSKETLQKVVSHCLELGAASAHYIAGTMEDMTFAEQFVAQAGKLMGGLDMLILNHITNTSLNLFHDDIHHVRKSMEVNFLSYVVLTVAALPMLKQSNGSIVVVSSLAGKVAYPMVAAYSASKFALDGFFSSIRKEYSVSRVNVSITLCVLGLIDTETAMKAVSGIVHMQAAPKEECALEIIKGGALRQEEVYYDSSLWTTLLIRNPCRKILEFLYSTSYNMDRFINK
Protocol: Briefly, compounds were incubated for 1 hour at 37° C. in Tris buffer (20 mM tris, 5 mM EDTA, pH 6.0) containing NADPH (200 μM) and cortisone (80 nM). Cortisol generated in the reaction is then detected with a competitive immunoassay, involving two HTRF conjugates: cortisol linked to XL665 and anti-cortisol antibody labeled with Europium cryptate. The incubation period for detection reaction was typically 2 hours. The amount of cortisol was determined by reading the time-resolved fluorescence of the wells (Ex 320/75 nm; Em 615/8.5 nm and 665/7.5 nm). The ratio of the two emission signals was then calculated (Em665*10000/Em615). […] Each assay also contained a calibration curve with cortisol to transform the fluorescent data into cortisol concentrations. Percent inhibition of each compound was determined relative to the carbenoxolone signal.

11β-HSD1 [2] = target: T1, 11β-HSD1; assay: Inhibition of a microsomal preparation of 11β-HSD1, scintillation proximity assay; assay type: biochemical; parameters: expressed in transfected cells; host or cells: CHO cells (microsomes); conditions: microsomes from CHO cells overexpressing human 11β-HSD1; for inhibition at 0.1 µM: at 100 nM
Protocol: All reactions were carried out at rt in 96 well clear flexible PET Microbeta plates (PerkinElmer). […] After a 10 minute pre-incubation, 50 μL of enzyme solution containing microsomes isolated from CHO cells overexpressing human 11β-HSD1 (10-20 μg/ml of total protein) was added, and the plates were incubated for 90 minutes at rt. The reaction was stopped by adding 50 μl of the SPA beads suspension containing 10 μM 18β-glycyrrhetinic acid, 5 mg/ml protein A coated YSi SPA beads (GE Healthcare) and 3.3 μg/ml of anti-cortisol antibody (East Coast Biologics) in Superblock buffer (Bio-Rad). The plates were shaken for 120 minutes at rt, and the SPA signal corresponding to [^3H]cortisol was measured on a Microbeta plate reader.

SMILES: C[C@@H](c1ccc(C#Cc2ccc(=O)n(C)c2)cc1)N1CC[C@](CC(C)(C)O)(c2ccccc2)OC1=O [Example 31, (S)-6-(2-Hydroxy-2-methyl-propyl)-3-{(S)-1-[4-(1-methyl-6-oxo-1,6-dihydro-pyridin-3-ylethynyl)-phenyl]ethyl}-6-phenyl-[1,3]oxazinan-2-one]
- IC50 (11β-HSD1 [1]): 30 nM

SMILES: C[C@@H](c1ccc(C#Cc2ccn(C)c(=O)c2)cc1)N1CC[C@](CC(C)(C)O)(c2ccccc2)OC1=O [Example 30, (S)-6-(2-Hydroxy-2-methyl-propyl)-3-{(S)-1-[4-(1-methyl-2-oxo-1,2-dihydro-pyridin-4-ylethynyl)-phenyl]ethyl}-6-phenyl-[1,3]oxazinan-2-one]
- IC50 (11β-HSD1 [1]): 29 nM

SMILES: COC(=O)NC(C)(C)C#Cc1ccc([C@H](C)N2CC[C@](CC(C)(C)O)(c3ccccc3)OC2=O)cc1 [Example 18, methyl 4-(4-((S)-1-((S)-6-(2-hydroxy-2-methylpropyl)-2-oxo-6-phenyl-1,3-oxazinan-3-yl)ethyl)phenyl)-2-methylbut-3-yn-2-ylcarbamate]
- inhibition at 0.1 µM (11β-HSD1 [2]): 94.5%
- IC50 (11β-HSD1 [2]): 3.7 nM

SMILES: C[C@@H](c1ccc(C#Cc2ccccn2)cc1)N1CC[C@](CC(C)(C)O)(c2ccccc2)OC1=O [Example 9, (S)-6-(2-hydroxy-2-methylpropyl)-6-phenyl-3-((S)-1-(4-(pyridin-2-ylethynyl)phenyl)ethyl)-1,3-oxazinan-2-one]
- inhibition at 0.1 µM (11β-HSD1 [2]): 96.6%
- IC50 (11β-HSD1 [2]): 1 nM
